Results on three compounds are retold here after PMC4138991, “Building a Better Dynasore: The Dyngo Compounds Potently Inhibit Dynamin and Endocytosis” (Traffic (Copenhagen, Denmark), 2013).

Data set [1] deals with HeLa cells. Kind of data set: LDH toxicity assay. The settings on record: 8-h exposure, with or without serum. The class given is cell-based. On the procedure:
Cytotoxicity was assayed by determination of lactate dehydrogenase (LDH) activity. HeLa cells were seeded in 96 well plates as described previously (11) Asynchronously growing cells were treated in the presence or absence of MiTMAB or the indicated Dyngo compound in the presence and absence of FCS at the indicated concentration for 8h. The supernatant (50 μL) was added to 100 μL of LDH assay reagent (Sigma- Aldrich) and the reaction was allowed to develop for 20 min. Absorbance was measured at 490 nm and 690 nm (plate background absorbance). Values were normalized to drug/media background value and toxicity was calculated as a % of a 100% lysed cell control.

The next data set deals with rat brain synaptosomes. Kind of data set: Synaptic vesicle endocytosis: FM4-64 uptake in synaptosomes. The conditions noted are these: read-out: SVE IC50.
For a further data set, the target named is T1, human serum albumin (Homo sapiens, UniProt P02768).
T1 construct: purchased ChromTech Chiral‐HSA, 50 × 3.0 mm, 5 µm
T1 sequence (P02768 25-609): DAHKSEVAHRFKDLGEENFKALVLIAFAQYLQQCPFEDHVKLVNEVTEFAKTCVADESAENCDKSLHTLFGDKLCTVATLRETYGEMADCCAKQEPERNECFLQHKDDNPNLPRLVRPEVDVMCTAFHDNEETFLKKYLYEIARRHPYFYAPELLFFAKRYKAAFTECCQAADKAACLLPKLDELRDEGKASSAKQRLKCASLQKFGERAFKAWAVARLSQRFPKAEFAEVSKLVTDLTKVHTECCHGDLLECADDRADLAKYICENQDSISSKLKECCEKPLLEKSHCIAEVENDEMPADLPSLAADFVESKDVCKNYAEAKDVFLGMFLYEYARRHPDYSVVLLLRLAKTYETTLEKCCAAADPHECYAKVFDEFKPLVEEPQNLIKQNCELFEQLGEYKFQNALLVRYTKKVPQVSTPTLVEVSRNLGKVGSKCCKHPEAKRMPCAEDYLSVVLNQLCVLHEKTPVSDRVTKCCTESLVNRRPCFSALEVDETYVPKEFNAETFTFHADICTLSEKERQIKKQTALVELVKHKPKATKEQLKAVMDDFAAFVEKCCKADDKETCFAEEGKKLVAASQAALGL
Kind of data set: Plasma protein binding on immobilized human serum albumin column. The class given is in vitro ADME. The settings on record: immobilized HSA column. The text has this: Plasma protein binding was estimated using an immobilized human serum albumin column (ChromTech Chiral‐HSA, 50 × 3.0 mm, 5 µm) with gradient elution based on a previously published method 56.

The target of data set [2] is T2, clathrin heavy chain binding to amphiphysin 1 (Homo sapiens, UniProt Q00610).
T2 construct: recombinant GST-tagged clathrin heavy chain TD (amino acids 1-364); made in house; host or cells: bacteria
T2 sequence (Q00610 1-364): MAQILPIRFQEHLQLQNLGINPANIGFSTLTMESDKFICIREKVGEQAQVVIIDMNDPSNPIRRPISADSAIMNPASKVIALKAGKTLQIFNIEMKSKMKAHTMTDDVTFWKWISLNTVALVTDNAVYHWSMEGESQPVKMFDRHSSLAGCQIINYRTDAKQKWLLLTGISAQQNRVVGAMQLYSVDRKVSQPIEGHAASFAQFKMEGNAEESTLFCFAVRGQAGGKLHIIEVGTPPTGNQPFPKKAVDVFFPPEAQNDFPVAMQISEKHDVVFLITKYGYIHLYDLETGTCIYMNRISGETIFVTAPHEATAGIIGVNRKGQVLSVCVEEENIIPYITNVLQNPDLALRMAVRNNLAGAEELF
Kind of data set: ELISA-based clathrin binding assay. The settings on record: up to 300 μM. The protocol: The assay for the interaction of amphiphysin with either clathrin or AP2 was based on our previous report (11). Bacterially expressed recombinant purified His6-tagged amphiphysin 1 PRD+CLAP domains (amino acids 250-578) in screening buffer (20 mM HEPES, pH 7.4, 50 mM NaCl, 1 mM DTT, 1 mM PMSF) was added to a 384 well ELISA plate (high-binding PS Microplate, Greiner Bio-One) and bound to the plastic at room temperature for 1 hr. Non-specific binding was reduced by overnight incubation with 50 µL blocking buffer (20 mM HEPES, pH 7.4, 50 mM NaCl, 1 mM PMSF, 2 % BSA, 2.5 % skim milk) at 4 °C. Following extensive washes (with 20 mM HEPES, pH 7.4, 50 mM NaCl, 0.05 % Tween 20), chemical compounds diluted in DMSO (10 µL) were added and incubated together with bacterially expressed recombinant GST-tagged clathrin heavy chain TD (amino acids 1-364) or GST-AP-2 α-appendage (amino acids 702–938) for 1 hr at room temperature in screening buffer. This incubation was in the presence of test compounds diluted in 1% DMSO or 1% DMSO alone as a control. After 3 washes, horseradish peroxidase-coupled anti-GST antibodies were added in screening buffer and the plate incubated for 15 min at room temperature. Following additional washes, 50 µL TMB (3,3′,5,5′-tetramethylbenzidine) (Pierce Biotechnology) chromogenic substrate of horseradish peroxidase was added and the plate was incubated for 20 min before the reaction was terminated by adding 50 µL 1 N sulfuric acid to produce a yellow colour. The amount of bound protein was determined by spectrophotometric measurement in a plate reader in triplicates. Relative binding was calculated as a percentage of the DMSO control.
A general note: In an ELISA, binding on a coated surface is turned into a signal by an enzyme label.

A short description of data set [3]: MTT growth inhibition assay. The class given is cell-based. The settings on record: human. The protocol:
A 30 mM stock solution of each test compound was prepared in dimethylsulphoxide (DMSO) and stored at −20 °C. All cell lines were cultured at 37 °C, under 5% CO2 in air and were maintained in Dulbecco’s modified Eagle’s medium (Trace Biosciences, Australia) supplemented with 10% foetal bovine serum, 10 mM sodium bicarbonate penicillin (100 IU/mL), streptomycin (100 µg/mL), and glutamine (4 mM). Cells in logarithmic growth were transferred to 96-well plates. Cytotoxicity was determined by plating cells in duplicate in […] medium at a density of 2,500–4,000 cells/well. On day 0, (24 h after plating) when the cells were in logarithmic growth, 100 μL medium with or without the test agent was added to each well. After 72 h drug exposure, growth inhibitory effects were evaluated using the MTT (3-[4,5-dimethyltiazol-2-yl]-2,5-diphenyl-tetrazolium bromide) assay and absorbance read at 540 nm. A dose response curve was produced allowing for the calculation of a GI50 value. This value is the drug concentration at which cell growth is inhibited by 50% based on the difference between the optical density values on day 0 and those at the end of drug exposure.

The test system of data set [4] is CT-555 uptake in NIH3T3 cells. The class given is cell-based. The settings on record: NIH3T3, 20, 50 or 80 μM.
The subject of data set [5] is HeLa cells. Put plainly: Trypan blue exclusion cell viability and proliferation assay. The class given is cell-based. The conditions noted are these: 20 h exposure, with or without serum. The protocol: Cell viability and membrane integrity was assessed by the Trypan Blue exclusion assay. Cells were seeded into 10 cm dish at a density of 1 × 10^5 cells per dish. […] This was carried out in the presence and absence of FBS.

[6] abbreviates: MCF-7 breast cancer cells, MCF-7, MTT.

Entries after “also recorded” stand apart in the source; their conditions may differ.

In the case of `O=C(N/N=C/c1cc(O)c(O)cc1O)c1cc2ccccc2cc1O` [4a, (E)-3-Hydroxy-N'-(2,4,5-trihydroxybenzylidene) -2-naphthohydrazide], in the data set on HeLa cells [1], the “generalized cytotoxicity by LDH activity” value is “did not exhibit generalized cytotoxicity”. The IC50 (in general, the point on the concentration scale where inhibition reaches its midpoint) in the data set with rat brain synaptosomes amounted to 26.8 µM. Further, at human serum albumin, the “bound to human serum albumin” value stood at 99.4 % bound. For the same compound, the “inhibition of clathrin heavy chain binding to amphiphysin 1” value (from here on “inhibition”) in data set [2] is reported as “None of the compounds inhibited this interaction”. The GI50 at 72 h in data set [3] (A431 skin cancer cells), in data set [3] (BE2-C neuroblastoma cells), in data set [3] (DU145 prostate cancer cells), in data set [3] (H460 lung cancer cells), in data set [3] (HT29 colon cancer cells) and in data set [3] (setting [6]) was > 50 µM each time. The GI50 at 72 h in data set [3] (SJ-G2 glioblastoma cells), in data set [3] (SW480 colon cancer cells) and in data set [3] (ovarian cancer cells) was > 50 µM each time. The “effect on dynamin-independent endocytosis of cholera toxin” value (“effect” for short) in data set [4] was “no effect; also recorded: much less effect; also recorded: does not block”. In addition, the “cell membrane integrity / viability by trypan blue exclusion” value (shortened to “cell membrane integrity / viability”) with HeLa cells [5] is recorded as “do not affect cell viability”.
As to `O=C(N/N=C/c1cccc(O)c1O)c1cc2ccccc2cc1O` [6a, (E)-N'-(2,3-Dihydroxybenzylidene)-3-hydroxy-2-naphthohydrazide], in the data set on HeLa cells [1], the “generalized cytotoxicity by LDH activity” value is reported as “did not exhibit generalized cytotoxicity”. Also, in the data set on rat brain synaptosomes, the IC50 was found to be 70.1 µM. In addition, the “bound to human serum albumin” value at human serum albumin is 99.7 % bound. The “inhibition” value in data set [2] was “None of the compounds inhibited this interaction”. In addition, the GI50 at 72 h in data set [3] (A431 skin cancer cells), in data set [3] (BE2-C neuroblastoma cells), in data set [3] (DU145 prostate cancer cells), in data set [3] (H460 lung cancer cells), in data set [3] (HT29 colon cancer cells) and in data set [3] (setting [6]) was > 50 µM throughout. For the same compound, the concentration for 50% growth inhibition (GI50) at 72 h in data set [3] (SJ-G2 glioblastoma cells), in data set [3] (SW480 colon cancer cells) and in data set [3] (ovarian cancer cells) was > 50 µM throughout. Moreover, the “effect” value in data set [4] is given as “no effect”. For the same compound, the “cell membrane integrity / viability” value with HeLa cells [5] is “do not affect cell viability”.
As for `O=C(N/N=C/c1ccc(O)c(O)c1)c1cc2ccccc2cc1O` [Dynasore, (E)-N'-(3,4-Dihydroxybenzylidene)-3-hydroxy-2-naphthohydrazide], in the data set with HeLa cells [1], the “generalized cytotoxicity by LDH activity” value is recorded as “did not exhibit generalized cytotoxicity”. In addition, the IC50 with rat brain synaptosomes turned out to be 184 µM. Besides, the “bound to human serum albumin” value at human serum albumin amounted to 98.8 % bound. The “inhibition” value in data set [2] is on record as “None of the compounds inhibited this interaction”. Also, the GI50 (as a rule, the concentration that inhibits growth by half) at 72 h in data set [3] (A431 skin cancer cells) is 14 ± 0.6 µM; in data set [3] (BE2-C neuroblastoma cells), 8.6 ± 0.4 µM; in data set [3] (DU145 prostate cancer cells) it was 23 ± 1.7 µM; in data set [3] (H460 lung cancer cells), 21 ± 1.9 µM; in data set [3] (HT29 colon cancer cells), 12 ± 1.3 µM; in data set [3] (setting [6]) it was 14 ± 0.3 µM. Moreover, the GI50 at 72 h in data set [3] (SJ-G2 glioblastoma cells) amounted to 12 ± 1.7 µM; in data set [3] (SW480 colon cancer cells) it was 3.6 ± 0.1 µM; in data set [3] (ovarian cancer cells) it was 6.7 ± 0.4 µM. For the same compound, the “effect” value in data set [4] is listed as “much less effect”. The “cell membrane integrity / viability” value with HeLa cells [5] is recorded as “do not affect cell viability”.
